For test [1], the system named is cimetidine-inhibited tissues. In words: Resistance (R) of cimetidine-inhibited gastric mucosa tissues. The test is classed as cell-based, bullfrog. As to conditions: pH 7.2. The method, then:
Tissues were incubated with cimetidine until acid secretion reached 0 μEq/hr cm^2; experiments were performed only if the R of paired tissues was different by 10% or less.

For test [2], the system named is bullfrog gastric mucosa. Type of test: cell-based. How it is done:
FIG. 1B Electrophysiology in the bullfrog gastric mucosa. […] Removal of NH4Cl was followed by a complete recovery of R within 30 min. Data were obtained from 21 experiments and are expressed as the mean±SEM.
FIG. 1C Electrophysiology in the bullfrog gastric mucosa. […] Removal of NH4Cl was followed by a complete recovery of PD within 30 min. Data were obtained from 21 experiments and are expressed as the mean±SEM.

The next test has as its system rabbit gastric glands. Briefly: Intracellular ATP in rabbit gastric glands. The test is classed as cell-based.
Test [3] deals with bullfrog gastric mucosa. Briefly: Acid secretion of frog (bullfrog) gastric mucosa stimulated with histamine/carbachol or forskolin. The test is classed as cell-based.
In test [4] the test system is bullfrog gastric mucosa. The settings on record: cited from earlier work.
Test [5] has as its system Ca^2+-dependent inwardly rectifying K^+ channel. As to conditions: HeLa cells (Diaz et al.); cited from earlier work.

The values that follow come from US20040224880A1, “Regulation of gastric acid secretion by inwardly rectifying k+ channels” (Beth Israel Deaconess Medical Center, Inc., priority 2001, published 2004).

“Also recorded” adds a separate entry of the source.

Consider `Cl.N` [NH4Cl, ammonium chloride], for which the “effect of NH4Cl on R of cimetidine-inhibited tissues (in words)” value in test [1] is “does not cause an increase in R; also recorded: no change in R”. Further, in the test with bullfrog gastric mucosa [2], the “PD after NH4Cl” value is on record as 28.48±1.47 mvolts, the “PD after NH4Cl washed out” value is 7.95±2.65 mvolts, the “R after NH4Cl” value stood at 306.5±16.11 Ohm cm^2 and the “R after NH4Cl washed out” value was 159.0±16.83 Ohm cm^2. In addition, in the test with bullfrog gastric mucosa [2], the “effect on potential difference (PD) of stimulated tissues (in words)” value is “increase in potential difference (PD)” and the “effect on resistance (R) of stimulated tissues (in words)” value was “increase in resistance (R)”. In the test on rabbit gastric glands, the “effect on concentration of ATP (in words)” value is “statistically significant reduction in the concentration of ATP”; the “intracellular ATP” value was 3.76±0.12 μM/mg protein; the “intracellular ATP, % of control” value is on record as 83 % of control. In addition, in the test on bullfrog gastric mucosa [3], the “Rate of decline in acid secretion” value is −0.2881 (μEq/h · cm^2)/min, the “acid secretion after NH4Cl washed from the nutrient bath” value was found to be 5.51±0.16 μEq/hr cm^2, the “effect of 1-9 mM NH4Cl on acid secretion” value is “inhibition of acid secretion” and the “least (minimum) concentration required for complete inhibition of acid secretion within 30 min” value is 10 mM. Besides, in the test with bullfrog gastric mucosa [3], the “rate of decline of acid secretion relative to cimetidine” value is 3.6 times faster, the “rate of decline of acid secretion relative to omeprazole” value is reported as 3.2 times faster, the “rate of inhibition of acid secretion relative to cimetidine or omeprazole” value is reported as “more than 3 times faster” and the “time to complete inhibition of stimulated acid secretion” value was no more than 30 min. Besides, in the test on bullfrog gastric mucosa [3] (pH 7.2), the “rate of acid secretion after NH4Cl” value is 0±0 μEq/hr cm^2. Further, the “effect of luminal NH4Cl on tissue resistance (Yanaka et al.)” value with bullfrog gastric mucosa [4] was “significant decrement in tissue resistance”. Also, the “effect of basolateral NH4Cl on acid secretion (Yanaka et al.)” value in the test with bullfrog gastric mucosa [4] (pH 7.2) was “rapidly and completely inhibits acid secretion”.

As to `N` [NH4^+], in test [5], the “inhibition of Ca2+-dependent inwardly rectifying K+ channel activity” value was “potent inhibitor”.
